Assay results: US8735426B2, “Vanilloid receptor ligands, pharmaceutical compositions containing them, process for making them and use thereof for treating pain and other conditions” (Gruenenthal GmbH, priority 2007, dated 2014)

How the values were obtained:
Format in all cases: cell-based
vanilloid receptor (VR1) = molecular target: T1, vanilloid receptor (VR1) (Homo sapiens, UniProt Q8NER1); experiment: Functional FLIPR Ca2+ influx assay in CHO-K1 cells transfected with the VR1 gene, capsaicin stimulus (Pharmacological Method II); conditions: read-out: inhibition (in percent), Human Capsaicin
T1 construct: expressed in transfected cells; host or cells: CHO-K1 cells (ECACC), stably transfected
T1 sequence (Q8NER1 whole entry): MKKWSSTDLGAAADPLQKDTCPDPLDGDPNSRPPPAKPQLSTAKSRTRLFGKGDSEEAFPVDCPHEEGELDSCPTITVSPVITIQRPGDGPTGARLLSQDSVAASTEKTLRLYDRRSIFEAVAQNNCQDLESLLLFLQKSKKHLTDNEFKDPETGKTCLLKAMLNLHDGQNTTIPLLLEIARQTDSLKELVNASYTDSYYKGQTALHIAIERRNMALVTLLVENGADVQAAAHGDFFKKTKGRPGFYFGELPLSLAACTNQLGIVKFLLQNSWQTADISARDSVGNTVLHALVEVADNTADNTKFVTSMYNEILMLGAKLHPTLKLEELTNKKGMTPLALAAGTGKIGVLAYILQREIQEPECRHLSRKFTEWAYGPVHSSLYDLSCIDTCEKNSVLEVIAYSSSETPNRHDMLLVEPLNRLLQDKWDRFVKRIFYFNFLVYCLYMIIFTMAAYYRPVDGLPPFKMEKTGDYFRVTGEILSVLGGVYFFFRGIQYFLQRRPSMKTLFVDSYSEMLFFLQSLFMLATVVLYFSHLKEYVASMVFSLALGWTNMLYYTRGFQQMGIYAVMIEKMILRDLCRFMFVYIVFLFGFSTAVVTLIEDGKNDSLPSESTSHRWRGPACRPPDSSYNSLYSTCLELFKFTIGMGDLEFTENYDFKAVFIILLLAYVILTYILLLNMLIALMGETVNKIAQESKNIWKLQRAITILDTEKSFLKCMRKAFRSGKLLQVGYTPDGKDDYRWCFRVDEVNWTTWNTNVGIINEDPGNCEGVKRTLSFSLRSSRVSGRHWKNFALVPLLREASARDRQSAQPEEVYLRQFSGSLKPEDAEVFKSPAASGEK

[1] = molecular target: T2, vanilloid receptor 1 (VR1/TRPV1) (Rattus norvegicus, UniProt O35433); experiment: Functional FLIPR Ca2+ influx assay on vanilloid receptor 1, capsaicin stimulus (Pharmacological Method I)
T2 construct: The vertebral column is removed from decapitated rats; from tissue; host or cells: primary cells from rat dorsal root ganglia (DRG)
T2 sequence (O35433 whole entry): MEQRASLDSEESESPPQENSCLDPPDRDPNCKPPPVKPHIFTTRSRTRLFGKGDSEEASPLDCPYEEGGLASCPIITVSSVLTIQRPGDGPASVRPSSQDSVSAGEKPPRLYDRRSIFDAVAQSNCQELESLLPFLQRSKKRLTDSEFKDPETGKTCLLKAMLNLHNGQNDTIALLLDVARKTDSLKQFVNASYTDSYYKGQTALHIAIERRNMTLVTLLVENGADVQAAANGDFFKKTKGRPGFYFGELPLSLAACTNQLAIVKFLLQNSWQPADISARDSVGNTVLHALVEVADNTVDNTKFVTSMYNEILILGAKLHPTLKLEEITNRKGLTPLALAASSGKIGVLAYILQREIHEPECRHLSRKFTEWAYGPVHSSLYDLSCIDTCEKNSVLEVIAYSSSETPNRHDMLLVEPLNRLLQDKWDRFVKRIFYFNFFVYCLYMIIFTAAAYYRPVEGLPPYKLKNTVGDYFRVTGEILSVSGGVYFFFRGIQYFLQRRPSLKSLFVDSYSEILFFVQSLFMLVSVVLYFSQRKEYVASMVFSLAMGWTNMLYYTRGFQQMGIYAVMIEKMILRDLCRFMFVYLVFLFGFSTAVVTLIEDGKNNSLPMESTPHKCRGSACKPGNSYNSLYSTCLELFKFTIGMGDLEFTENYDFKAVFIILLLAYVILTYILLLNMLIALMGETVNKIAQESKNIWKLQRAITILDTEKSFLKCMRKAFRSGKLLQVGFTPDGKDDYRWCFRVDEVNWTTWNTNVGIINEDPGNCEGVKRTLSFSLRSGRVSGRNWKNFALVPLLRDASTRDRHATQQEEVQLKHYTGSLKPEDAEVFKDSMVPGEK
From the text: The agonistic or antagonistic action of the substances to be investigated on the vanilloid receptor 1 (VR1/TRPV1) of the species rat can be determined using the following assay. According to this assay, the Ca^2+ influx through the receptor channel is quantified with the aid of a Ca^2+-sensitive dye (Type Fluo-4, Molecular Probes Europe BV, Leiden Netherlands) in a fluorescent imaging plate reader (FLIPR, Molecular Devices, Sunnyvale, USA).
The vertebral column is removed from decapitated rats and this is laid directly in a cold, i.e. ice bath-surrounded, HBSS buffer (Hank's buffered saline solution, Gibco Invitrogen GmbH, Karlsruhe, Germany) and 1% by volume of an AA solution (antibiotics/antimycotics solution, PAA, Pasching, Austria) is added. The vertebral column is cut in two longitudinally and the vertebral canal is removed together with fascias. Subsequently, the dorsal root ganglia (DRGs) are removed and in turn stored in cold HBSS buffer to which 1% by volume of an AA solution has been added. The DRGs completely freed from blood residues and spinal nerves are in each case transferred to 500 μL of cold collagenase Type 2 (PAA, Pasching, Austria) and incubated at 37° C. for 35 minutes. […] On completion of incubation, the enzyme solution is carefully pipetted off and 500 μL of complete medium are added to the DRGs in each case. The DRGs are in each case repeatedly suspended, drawn through No. 1, No. 12 and No. 16 needles by means of a syringe and transferred to 50 mL Falcon tubes and these are filled to 15 mL with complete medium. The contents of each Falcon tube are in each case filtered through a 70 μm Falcon filter insert and centrifuged at 1200 rpm and room temperature for 10 minutes. The resulting pellet is in each case taken up in 250 μL of complete medium and the cell count is determined.
The number of cells in the suspension is adjusted to 3×10^5 per mL and in each case 150 μL of this suspension are added to a well of the cell culture plates coated as described above.
The cells are then loaded with 2 μM Fluo-4 and 0.01% by volume of Pluronic F127 (Molecular Probes Europe BV, Leiden Netherlands) in HBSS buffer (Hank's buffered saline solution, Gibco Invitrogen GmbH, Karlsruhe, Germany) at 37° C. for 30 min, washed 3 times with HBSS buffer and, after a further incubation of 15 minutes at room temperature, employed in the FLIPR assay for Ca^2+ measurement. […] Quantification is carried out by measuring the highest fluorescence intensity (FC, fluorescence counts) over time.
Initially, the compounds to be tested (10 μM) are pipetted onto the cells and the Ca^2+ influx is compared with the control (capsaicin 10 μM). Information is gained therefrom in % activation relative to the Ca^2+ signal after addition of 10 μM of capsaicin (CP). After incubation for 5 minutes, 100 nM of capsaicin are applied and the influx of Ca^2+ is likewise determined.
Desensitizing agonists and antagonists lead to suppression of the Ca^2+ influx. The percentage inhibition is calculated in comparison with the maximum inhibition achieved with 10 μM of capsaicin.
Triplicate determinations (n=3) are carried out and these are repeated in at least 3 independent experiments (N=4).
Based on the percentage displacement effected by different concentrations of the compounds of the general formula I to be tested, IC50 inhibition concentrations are calculated which cause 50 percent displacement of capsaicin.

[2] = molecular target: vanilloid receptor 1 (VR1/TRPV1-Receptor) (Homo sapiens, UniProt Q8NER1); experiment: VR1 functional assay following pH-stimulus; conditions: read-out: inhibition (in percent), Human following pH-stimulus
Chain of vanilloid receptor 1 (VR1/TRPV1-Receptor) (Q8NER1 whole entry): as the sequence (Q8NER1 whole entry) above

CS(=O)(=O)Nc1ccc(C2(C(=O)NCc3ccc(C(F)(F)F)nc3SC3CCCCC3)CCCC2)cc1F [Example 14, N-((2-(Cyclohexylthio)-6-(trifluoromethyl)pyridin-3-yl)methyl)-1-(3-fluoro-4-(methylsulfonamido)phenyl)cyclopentanecarboxamide]
inhibition at 0.1 µM (vanilloid receptor (VR1); @ 0.1 μM): 0% | inhibition at 1 µM (vanilloid receptor (VR1)): 20% | inhibition at 5 µM (vanilloid receptor (VR1)): 77% | Ki ([1]; capsaicin stimulus): 117 nM | inhibition at 5 µM [2]: 4% | inhibition at 10 µM [2]: 33%

CC1CCN(c2nc(C(F)(F)F)ccc2CNC(=O)C2(c3ccc(NS(C)(=O)=O)c(F)c3)CCCCC2)CC1 [Example 15, 1-(3-Fluoro-4-(methylsulfonamido)phenyl)-N-((2-(4-methylpiperidin-1-yl)-6-(trifluoromethyl)pyridin-3-yl)methyl)cyclohexanecarboxamide]
inhibition at 1 µM (vanilloid receptor (VR1)): 0% | inhibition at 5 µM (vanilloid receptor (VR1)): 33% | inhibition at 1 µM ([1]; @ 1 μM, capsaicin, read-out: inhibition (in percent), Rat Capsaicin): 7% | inhibition at 5 µM ([1]; @ 5 μM, capsaicin, read-out: inhibition (in percent), Rat Capsaicin): 69% | inhibition at 5 µM [2]: 7% | inhibition at 10 µM [2]: 32%
